Data set [1] has as its target T1, hNPFF1-R (Homo sapiens, UniProt Q9GZQ6).
T1 construct: expressed in transfected cells; host or cells: CHO cells
To be noted: inhibition of cAMP production induced by 2 μM forskolin; ref (46); read-out: Functional Activity hNPFF1-R EC50; cited from earlier work.

The target of data set [2] is T2, hNPFF2-R (Homo sapiens, UniProt Q9Y5X5).
T2 construct: expressed in transfected cells; host or cells: CHO cells (membranes)
Further details: method as in earlier work. Conditions: inhibition of cAMP production induced by 2 μM forskolin; ref (46); read-out: Functional Activity hNPFF2-R EC50; cited from earlier work.

Data set [3] concerns the target T1, hNPFF1-R. In words: Radioligand competition binding at NPFF1-R. To be noted: read-out: Receptor Binding, Ki ± SEM NPFF1-R.
Data set [4] concerns the target T2, hNPFF2-R. In words: Radioligand competition binding at NPFF2-R. Conditions: [3H]EYF, transfected CHO cell membranes; read-out: Receptor Binding, Ki ± SEM NPFF2-R. For orientation: In a radioligand displacement assay an active substance lowers the binding of a labelled ligand.
The target in data set [5] is T3, MOR (Homo sapiens, UniProt P35372). In words: Radioligand competition binding at MOR.
The target of data set [6] is T4, DOR (Homo sapiens, UniProt P41143). In words: Radioligand competition binding at DOR. Conditions: read-out: Receptor Binding, Ki ± SEM DOR.
Data set [7] deals with T5, KOR (Homo sapiens, UniProt P41145). As to the kind of experiment: biochemical. Format: binding.
Data set [8] deals with T3, MOR. In words: [35S]GTPγS functional assay (agonist mode) at MOR. Type of data set: biochemical. Conditions: [35S]GTPγS MOR EC50 ± SEM.
Data set [9] concerns the target T4, DOR. As to the kind of experiment: [35S]GTPγS functional assay (agonist mode) at DOR. Conditions: [35S]GTPγS DOR EC50 ± SEM, agonist mode, standard DPDPE. Type of data set: biochemical.
Data set [10] deals with T5, KOR. As to the kind of experiment: [35S]GTPγS functional assay (agonist mode) at KOR. Format: biochemical. Conditions: [35S]GTPγS KOR EC50 ± SEM, agonist mode, standard U-69,593. (Binding of GTPγS marks nucleotide exchange on a G protein.)
Data set [11] has as its system C57BL/6J mice. In words: Antinociception assay (55 °C warm water tail withdrawal assay). Type of data set: in vivo, mouse.
Data set [12] deals with C57BL/6J mice. In words: Anti-hyperalgesia assay (48 °C warm water tail withdrawal assay, NPFF-induced hyperalgesia). Type of data set: in vivo, mouse.
The subject of data set [13] is C57BL/6J mice. In words: Respiration testing (CLAMS). Type of data set: in vivo, mouse. Conditions: 90 min.
The subject of data set [14] is C57BL/6J mice. As to the kind of experiment: Locomotor testing (CLAMS). Format: in vivo, mouse. Conditions: 100 nmol i.c.v., 90 min.
Data set [15] deals with C57BL/6J mice. In words: Acute antinociceptive tolerance assay (55 °C warm water tail withdrawal). Type of data set: in vivo, mouse. To be noted: i.c.v.
A short description of data set [16]: Metabolic stability in rat liver microsomes. Format: in vitro ADME. On the procedure:
In vitro metabolism of 22b (1 µM) was studied using Sprague Dawley rat liver microsomes (RLM) in a bench-top shaker for 1 h at 37 ± 0.5 °C. An aliquot (2 μL) of the stock solution (250 µM) was spiked in 0.5 mL of pre-incubated metabolic reaction mixture [50 mM Tris buffer (pH 7.4), 0.5 mg protein/mL of RLM, 20 mM magnesium chloride, and 2 mM NADPH]. Verapamil was used as the positive control to ensure the activity of the liver microsomal enzymes, and a metabolic reaction mixture without NADPH was used as the negative control in the same incubation conditions. An aliquot (40 µL) of the reaction mixture was withdrawn at 0, 5, 10, 15, 30, 45, and 60 min and quenched with 200 µL of ice-cold methanol. Samples were vortex-mixed for 2 min, followed by filtration (Multiscreen, Merck Millipore, Ireland) under vacuum. The filtrate was injected onto a UPLC-MS/MS system.
The hepatic elimination rate constant (k) was calculated directly from the slope of the natural logarithm (percent drug remaining) of the concentration vs. the time profile. In vitro half-life (t1/2), intrinsic clearance (CLint), and hepatic clearance (CLint,h) can be calculated from the equations reported in Figure S3 of the Supporting Information, where [V] is the incubation volume in mL and [P] is the amount of microsomal protein in the incubation mixture.
(Liver microsomes are vesicles of endoplasmic reticulum, rich in cytochrome P450 enzymes.)

Data set [17] is described as follows: In vivo pharmacokinetic study, intravenous. Set-up: species or system Sprague Dawley rats. To be noted: 5 mg/kg i.v., rat, mean (n = 6) ± SEM. On the procedure: In vivo pharmacokinetic study. For the evaluation of the in vivo pharmacokinetic parameters of 22b, a pharmacokinetic study was performed in healthy male adult Sprague Dawley rats with in-dwelling jugular catheters weighing 225 ± 25 g. The animals were housed in single occupancy metabolic cages with mesh flooring and urine and feces receptacles. Six animals were dosed with 5 mg/kg intravenously, and the blood samples were collected at the following time points: pre-dose, 0.083, 0.17, 0.33, 0.50, 0.75, 1, 2, 4, 6, 8, and 10 h post-dose. All samples were stored at −80 °C until they were further analyzed. Collected plasma samples were analyzed using a validated UPLC-MS/MS method, and non-compartmental analysis of the plasma concentration data was performed using Phoenix® 6.4.
Bioanalytical method development and validation. A sensitive, accurate, and robust quantitative liquid chromatography tandem mass spectrometry (LC-MS/MS, Waters Corporation, Milford, MA, USA) method was developed and validated according to the FDA guidelines. Separation was achieved using a Waters Acquity I-Class liquid chromatography system equipped with a binary pump, a degasser, a temperature-controlled autosampler, and a column oven. The analyte was separated via gradient elution utilizing LC-MS grade water and methanol acidified with 0.02% trifluoroacetic acid (TFA, % v/v) through a 2.1 × 50 mm ACQUITY UPLC® CSH C18 column with 1.7 μm particle size (PN 186005296, SN 01463729915172). Mass detection was achieved via Waters Xevo TQS Micro triple quadrupole mass spectrometer in positive electrospray ionization (ESI^+) mode with the multiple reaction monitoring (MRM) function. The method was validated in rat plasma for the linearity range of 1–200 ng/mL. The gradient schematic and fragmentation monitoring parameters are reported in Tables S2 and S3 of the Supporting Information.

Data set [18] has as its system C57BL/6J mice. As to the kind of experiment: Excreta assay (intestinal transit). Conditions: 90 min.
In a further data set the target is NPFF1-R. To be noted: read-out: NPFF1-R Ki; Figure 1; ref [29]; cited from earlier work.
Where [19] appears, read: male, Sprague Dawley, plasma, iv.

T3 sequence (P35372 whole entry): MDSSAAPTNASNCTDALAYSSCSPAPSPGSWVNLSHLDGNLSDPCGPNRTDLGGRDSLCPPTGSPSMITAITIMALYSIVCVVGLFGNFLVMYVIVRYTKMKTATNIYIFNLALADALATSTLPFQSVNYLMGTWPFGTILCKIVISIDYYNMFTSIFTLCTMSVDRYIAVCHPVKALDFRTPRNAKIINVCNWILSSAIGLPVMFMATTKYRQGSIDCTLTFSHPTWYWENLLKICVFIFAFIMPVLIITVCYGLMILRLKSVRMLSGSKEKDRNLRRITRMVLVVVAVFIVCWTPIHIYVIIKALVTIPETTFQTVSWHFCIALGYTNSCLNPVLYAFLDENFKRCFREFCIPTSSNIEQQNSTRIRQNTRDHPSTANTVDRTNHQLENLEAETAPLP
T2 sequence (Q9Y5X5 whole entry): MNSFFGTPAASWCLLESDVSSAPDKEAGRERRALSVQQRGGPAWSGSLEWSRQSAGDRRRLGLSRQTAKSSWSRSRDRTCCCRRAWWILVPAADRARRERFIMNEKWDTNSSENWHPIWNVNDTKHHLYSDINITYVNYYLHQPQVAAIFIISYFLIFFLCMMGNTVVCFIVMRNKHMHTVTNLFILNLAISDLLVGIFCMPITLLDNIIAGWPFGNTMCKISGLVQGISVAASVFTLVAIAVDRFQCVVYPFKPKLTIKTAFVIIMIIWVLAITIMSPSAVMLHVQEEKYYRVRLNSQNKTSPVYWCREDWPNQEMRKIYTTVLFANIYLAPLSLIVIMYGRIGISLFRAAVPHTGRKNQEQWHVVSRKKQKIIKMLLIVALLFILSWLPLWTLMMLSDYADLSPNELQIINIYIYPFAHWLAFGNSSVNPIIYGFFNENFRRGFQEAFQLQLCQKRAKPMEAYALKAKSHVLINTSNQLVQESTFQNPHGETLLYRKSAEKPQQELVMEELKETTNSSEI
T1 sequence (Q9GZQ6 whole entry): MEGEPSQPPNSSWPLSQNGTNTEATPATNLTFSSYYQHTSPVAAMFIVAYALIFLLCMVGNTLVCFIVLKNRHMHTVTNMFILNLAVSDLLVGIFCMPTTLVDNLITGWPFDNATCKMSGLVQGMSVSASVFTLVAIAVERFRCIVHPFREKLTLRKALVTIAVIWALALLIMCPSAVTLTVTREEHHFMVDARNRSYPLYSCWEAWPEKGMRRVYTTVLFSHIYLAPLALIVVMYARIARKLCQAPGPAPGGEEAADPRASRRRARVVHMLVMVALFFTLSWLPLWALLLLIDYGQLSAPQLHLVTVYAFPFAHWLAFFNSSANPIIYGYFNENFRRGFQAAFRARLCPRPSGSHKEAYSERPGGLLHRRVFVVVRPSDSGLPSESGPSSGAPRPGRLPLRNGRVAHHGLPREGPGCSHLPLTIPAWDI
T5 sequence (P41145 whole entry): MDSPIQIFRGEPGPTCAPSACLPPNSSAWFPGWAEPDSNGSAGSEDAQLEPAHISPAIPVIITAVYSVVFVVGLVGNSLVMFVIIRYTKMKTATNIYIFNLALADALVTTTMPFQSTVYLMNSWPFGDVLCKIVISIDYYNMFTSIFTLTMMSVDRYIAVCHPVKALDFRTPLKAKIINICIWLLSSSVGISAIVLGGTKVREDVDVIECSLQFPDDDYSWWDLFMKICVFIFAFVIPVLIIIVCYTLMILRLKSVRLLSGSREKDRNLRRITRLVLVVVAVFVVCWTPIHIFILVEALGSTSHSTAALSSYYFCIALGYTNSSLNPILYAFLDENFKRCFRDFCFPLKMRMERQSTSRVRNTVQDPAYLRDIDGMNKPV
T4 sequence (P41143 whole entry): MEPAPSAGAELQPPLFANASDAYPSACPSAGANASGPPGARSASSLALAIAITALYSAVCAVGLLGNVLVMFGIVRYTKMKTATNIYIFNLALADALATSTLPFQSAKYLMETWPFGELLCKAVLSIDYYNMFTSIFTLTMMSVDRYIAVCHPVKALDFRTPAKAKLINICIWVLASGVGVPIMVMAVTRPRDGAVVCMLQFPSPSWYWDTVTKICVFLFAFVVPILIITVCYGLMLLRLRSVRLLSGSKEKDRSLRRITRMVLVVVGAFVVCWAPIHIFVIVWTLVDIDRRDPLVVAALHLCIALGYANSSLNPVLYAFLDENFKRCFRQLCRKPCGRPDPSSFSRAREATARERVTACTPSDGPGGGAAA

For “1DMe: high-affinity peptidic NPFF receptor ligand (YLFQPQRF)”, the EC50 (in general, the concentration that produces a half-maximal response) was 0.071 ± 0.014 µM with hNPFF1-R [1] and 0.0027 ± 0.0005 µM with hNPFF2-R [2].

In the case of `N=C(N)Nc1ccc(C(=C2CCN(Cc3ccccc3)CC2)c2ccccc2)cc1` [Compound 22b, 1-(4-((1-Benzylpiperidin-4-ylidene)(phenyl)methyl)phenyl)guanidine], the Ki (as a rule, a dissociation constant, usually derived from enzyme kinetics or from competition with a known ligand) came to 0.929 ± 0.183 µM at hNPFF1-R [3]; 0.272 ± 0.001 µM on hNPFF2-R [4]; 0.428 ± 0.033 µM on MOR [5]; 0.0114 ± 0.0043 µM at DOR [6]; 0.27 ± 0.043 µM at KOR [7]. Further, the results for the EC50 at MOR [8], at DOR [9] and at KOR [10] were 0.576 ± 0.311 µM, 0.539 ± 0.0932 µM and 2.71 ± 0.398 µM, respectively. In the data set on C57BL/6J mice [11] (30 nmol i.c.v., 55 °C), the “antinociceptive activity over time (screening)” value was “induced the greatest tail withdrawal latencies”. Besides, the “antinociceptive response after pretreatment with DOR-selective antagonist naltrindole” value in the data set on C57BL/6J mice [11] (22b 30 nmol i.c.v., naltrindole 20 mg/kg i.p. 20 min before, 40 min) is given as “did not alter the antinociceptive response”. Further, the “antinociceptive response after pretreatment with KOR-selective antagonist nor-BNI” value with C57BL/6J mice [11] (22b 30 nmol i.c.v., nor-BNI 10 mg/kg i.p. 24 h before, 40 min) is “did not alter the antinociceptive response”. Also, the “antinociceptive activity after pretreatment with MOR-selective antagonist β-FNA” value with C57BL/6J mice [11] (22b 30 nmol i.c.v., β-FNA 5 mg/kg s.c. 24 h before, 40 min) is recorded as “almost completely abolished”. For the same molecule, the 50% effective dose (ED50) (usually the dose that gives a 50% effect, or the effect in half of the subjects) in the data set with C57BL/6J mice [11] (Mus musculus, ip, 10 min, i.p., 10 min after administration, 55 °C, read-out: antinociception ED50 (95% confidence interval)) turned out to be 3.61 mg/kg. Besides, in the data set with C57BL/6J mice [11] (i.c.v., 40 min after administration, 55 °C), the “antinociception ED50 (95% confidence interval)” value is reported as 6.88 (4.71–9.47) nmol. Moreover, the “duration of antinociceptive effect” value with C57BL/6J mice [11] (i.p. administration) is “no more than 50 min”. Moreover, in the data set on C57BL/6J mice [12] (30 nmol i.c.v. two hours before NPFF 30 nmol i.c.v.), the “prevention of NPFF-induced hyperalgesia (screening)” value is given as “more moderate, yet still statistically significant, effect”. Besides, in the data set with C57BL/6J mice [12] (10 mg/kg i.p. pretreatment, NPFF 30 nmol i.c.v.), the “prevention of NPFF-induced hyperalgesia after peripheral pretreatment” value is recorded as “significant antagonism”. In addition, the “effect on respiration rate” value in the data set on C57BL/6J mice [13] (30 nmol i.c.v.) was “no marked reduction in respiration”; in the data set with C57BL/6J mice [13] (100 nmol i.c.v.), “increased respiration rate”. Moreover, the “effect on ambulation (spontaneous locomotor activity)” value in the data set with C57BL/6J mice [14] is “not significantly greater than that of the vehicle”. In addition, in the data set with C57BL/6J mice [15] (given 8 h after a first dose (morphine 3 nmol, 22b 8.7 nmol), 55 °C), the “antinociception ED50 (95% CI), second administration” value is 10.8 (5.89–21.1) nmol. Also, in the data set on C57BL/6J mice [15] (second administration 8 h after first), the “rightward shift of antinociceptive dose response (acute tolerance)” value is reported as 1.6 fold. In addition, in data set [16] (1 µM, RLM, with NADPH), the “compound remained unchanged after 1 h of incubation” value is 25.5%. The “stability in negative control reaction mixture” value in data set [16] (RLM without NADPH) is on record as “metabolism of the compound was also observed”. Further, the half-life (in general, the time needed for the level to fall by half in the phase considered) at 1 µM in data set [16] (Sprague Dawley, rat, liver microsomes, pH 7.4, 1 µM, RLM, read-out: in vitro half-life) came out at 0.517 ± 0.0133 h. Also, in data set [16] (pooled rat liver microsomes), the “intrinsic clearance (CLint)” value is reported as 0.045 ± 0.001 mL/min per milligram of microsomal protein. The AUC/dose0_inf in data set [17] was 3004.7 ± 108.1 ng·h/mL/mg. In data set [17] (setting [19]), this molecule registered a C0 of 9.15 ± 3.74 µg/mL. The Vd – broadly, the apparent volume that relates the amount in the body to the concentration in plasma or blood – in data set [17] (setting [19]) is 2 ± 0.2 L. The clearance (as a rule, the volume of plasma or blood freed of the substance per unit of time) in [17] (setting [19]) was 5 mL/min. For the same molecule, the half-life in data set [17] (setting [19]) is 4.1 ± 0.5 h. Besides, the k el in data set [17] (male, Sprague Dawley, plasma, iv, read-out: k (elimination rate constant) (converted)) is 5.56e-05 s⁻¹. The “number of excreted fecal boli” value worked out at 3.5 ± 0.7 boli with C57BL/6J mice [18] (30 nmol i.c.v.) and 4.1 ± 0.6 boli in the data set on C57BL/6J mice [18] (100 nmol i.c.v.).

In the case of `N=C(N)NCCNC(=O)C1(Nc2ccccc2)CCN(Cc2ccccc2)CC1` [compound 2], on NPFF1-R, the inhibition constant Ki is 0.081 ± 0.017 µM.

The values are drawn from PMC12251305 (Molecules, 2025).
